From US5008265A, “2-amino-7-(alicyclomethyl)-3H,5H,-pyrrolo[3,2-d]pyrimidin-4-ones and pharmaceutical uses and compositions containing the same” (BioCryst, Inc., priority 1989, dated 1991)
Like-named read-outs stand apart in the source and are kept apart here.

How the values were obtained:
[1] = biological target: T1, purine nucleoside phosphorylase (PNP) (Bos taurus, UniProt P55859); experiment: biochemical; format: biochemical, calf
T1 construct: using calf spleen as the enzyme source; from tissue; host or cells: calf spleen
T1 sequence (P55859 1-289): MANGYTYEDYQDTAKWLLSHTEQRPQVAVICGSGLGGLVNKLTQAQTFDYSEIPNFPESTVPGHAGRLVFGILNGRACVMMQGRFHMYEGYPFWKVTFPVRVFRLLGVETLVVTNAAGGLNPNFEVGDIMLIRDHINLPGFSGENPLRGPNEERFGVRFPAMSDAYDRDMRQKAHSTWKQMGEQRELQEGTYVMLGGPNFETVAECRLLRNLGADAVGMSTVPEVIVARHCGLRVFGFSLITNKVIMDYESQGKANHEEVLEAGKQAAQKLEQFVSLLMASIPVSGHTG
Description: The compound of Example 8 is tested for enzyme inhibition activity.

plasma inosine = plasma inosine in Lewis rats after intraperitoneal injection (HPLC); format: in vivo; settings: 30 mg twice per day, aqueous carrier with ten percent DMSO, vs vehicle controls
Description: A pharmaceutical composition for intraperitoneal injection is prepared for testing the compound (IA). An intraperitoneal injection solution containing the compound (IA) is dissolved in an aqueous carrier that contains ten percent DMSO.
The compound (IA) is intraperitoneally injected into Lewis Rats via the test composition of Example 21 to provide 30 mg of the compound (IA), with an injection given twice per day. Controls are used, which receive only the vehicle. At specific times after administration, the animals are sacrificed and plasma samples are prepared. The plasma is extracted with cold 0.5 N HClO4 and neutralized with solid NH4 HCO3. After removal of perchlorate salts, the extract is subjected to HPLC on a reversed phase column (Spherisorb ODSI).
Compounds prepared as in Examples 10-20 are each made into a pharmaceutical formulation in accordance with the preparation of Example 21 and the resultant injectable solutions are tested in accordance with the procedure of Example 22.
A pharmaceutical composition for intraperitoneal injection is prepared for testing the compound (IC). An intraperitoneal injection solution is prepared containing the compound (IC) is dissolved in an aqueous carrier that contains ten percent DMSO. […]

CCRF-CEM cells = experiment: potentiation of the toxicity of 2'-deoxyguanosine (d-Guo) in CCRF-CEM cells; format: cell-based; settings: read-out: IC50, concentration of the compound required to reduce the increase in cell number between 0 and 72 hours to 50% of that of control cultures, with d-Guo at 5.62 μM, RPMI-1640 medium
Description: CCRF-CEM cells are grown in RPMI-1640 medium. To a suspension cultures of these cells, d-Guo at a fixed concentration (5.62 μM) and the compound at varied concentrations are added and the number of cells are determined in a Coulter counter 24, 48, and 72 hours thereafter.

[2] = 1 mM phosphate, calf spleen enzyme, read-out: PNP activity (IC50) at 1 mM phosphate
[3] = read-out: PNP activity (IC50) at 50 mM phosphate, 50 mM phosphate, calf spleen enzyme

Compound	IC50 [1, 2] [µM]	IC50 [1, 3] [µM]	increase in plasma inosine (plasma inosine)	other results
Nc1nc2c(CC3CCCCCC3)c[nH]c2c(=O)[nH]1 [Example 70, 2-amino-7-(cycloheptylmethyl)-3H,5H-pyrrolo[3,2-d]pyrimidin-4-one]	0.03	–	–	IC50 ([1]; PNP activity (IC50) at 50 mM phosphate, 50 mM phosphate, calf spleen enzyme): 0.84 µM
CC1CCCC(Cc2c[nH]c3c(=O)[nH]c(N)nc23)C1 (stereo not shown) [Example 59, 2-amino-7-(3-methylcyclohexylmethyl)-3H,5H-pyrrolo[3,2-d]pyrimidin-4-one]	–	–	–	IC50 ([1]; read-out: PNP activity (IC50) at 1 mM phosphate): 0.025 µM
Nc1nc2c(CC3CCCCC3)c[nH]c2c(=O)[nH]1 [Example 56, 2-amino-7-(cyclohexylmethyl) -3H,5H-pyrrolo[3,2-d]-pyrimidin-4-one]	–	–	–	IC50 (CCRF-CEM cells): 2 µM

Second part, led by results:

IC50 [1, 2] [µM]	IC50 [1, 3] [µM]	Compound	increase in plasma inosine (plasma inosine)	other results
0.09	2.5	Nc1nc2c(CC3C4CC5CC(C4)CC3C5)c[nH]c2c(=O)[nH]1 (stereo not shown) [Example 8, 2-amino-7-(2-adamantylmethyl)-3H,5H-pyrrolo[3,2-d]pyrimidin-4-one]	significant increase in plasma inosine	–
0.029	1.8	Nc1nc2c(CC3CCCC3)c[nH]c2c(=O)[nH]1 [Example 41, 2-amino-7-(cyclopentylmethyl)-3H,5H-pyrrolo[3,2-d]-pyrimidin-4-one]	significant increase in plasma inosine	–
